Source: paper PMC9654546, “Identification of an IGF2BP2-Targeted Peptide for Near-Infrared Imaging of Esophageal Squamous Cell Carcinoma” (Molecules, 2022)
Ends that are not written are not given here. Cy5 = Cy5 fluorescent dye

Columns and labels:
KYSE-30 cells [1] = experiment: Immunofluorescence staining (confocal) of cells with Cy5 conjugated peptides; format: cell-based, human; settings: IGF2BP2-positive KYSE-30 cells, fixed and permeabilised, Cy5 conjugated peptide 80 μM overnight at 4 °C
Procedure: Approximately 5 × 10^4 cells were seeded onto fibronectin-coated coverslips in 24-well plates and fixed with 4% paraformaldehyde until the cells reached about 50% confluence. After permeabilization with 0.5% Triton X-100 (Millipore, MA, USA) for 10 min, the cells were blocked with 5% BSA for 0.5 h and subsequently incubated with Cy5 conjugated peptides at a concentration of 80 μM overnight at 4 °C. The next day, 1 μg/mL of diaminophenyl indole (DAPI) was added to stain the nucleus after washing with phosphate-buffered saline (PBS). Thereafter, the coverslips were mounted with ProLong Gold anti-fade (Invitrogen P26930, CA, USA), and the visualizations were conducted using confocal laser-scanning microscopy (Zeiss LSM880, Oberkochen, Germany).

KYSE-30 cells [2] = experiment: Flow cytometry of cells incubated with Cy5 conjugated peptides; format: cell-based, human; settings: Cy5 conjugated peptide 50 μM, 15 min, room temperature, 10,000 gated cells
Procedure: When the cells in the 6 cm dish were 80–90% grown, they were harvested with Accutase (Sigma-Aldrich, MO, USA) and incubated with Cy5 conjugated peptides at a concentration of 50 μM for 15 min at room temperature, protected from light. After incubation, the cells were washed 3 times with ice-cold PBS and resuspended in 200 µL of PBS. Flow cytometry was performed on a CytoFLEX LX flow cytometer (Beckman Coulter, IN, USA) and eventually, 10,000 gated cells were collected for analysis. The results were finally analyzed by flow cytometry using Flow Jo software (v7.6, BD Biosciences, OR, USA).

KYSE-30 xenografts = experiment: Near-infrared fluorescence imaging and ex vivo biodistribution in KYSE-30 bearing xenograft models; design: species or system mice
Procedure: Human esophageal cancer cell lines EC-9706, EC-109, and TE-1 were acquired from the Institute of Basic Medical Science, Chinese Academy of Medical Sciences, whereas KYSE-30, KYSE-410, KYSE-450, and KYSE-520 were obtained from the DSMZ (Deutsche Sammlung von Mikroorganismen und Zellkulturen). All cells were maintained in an incubator containing a humid atmosphere of 5% CO2 at 37 °C. All cells were cultured in RPMI-1640 medium supplemented with 10% fetal bovine serum (FBS) and penicillin-streptomycin solution. Mice aged 4 weeks were purchased from Guangdong Medical Laboratory Animal Center (Guangdong, China). Subcutaneous tumor models were constructed by subcutaneously injection of about 1 × 10^7 cells with a 20% suspension of Matrigel (Corning, NY, USA). All animal experiments were performed under a protocol approved by the Animal Ethics Committee of The Fifth Affiliated Hospital of Sun Yat-sen University.
Mice bearing subcutaneous esophageal tumors were injected with an equivalent of 50 μg Cy5-peptide via a tail vein. After circulation, the mice were anesthetized with isoflurane, and fluorescence images were captured at different time points of 10 min, 1 h, 2 h, 4 h, and 6 h by an IVIS Spectrum (PerkinElmer, MA, USA) with an excitation wavelength of 640 nm and an emission wavelength of 670 nm. The region of interest (ROI) was manually sketched to calculate the intensity of the fluorescence as mean fluorescence intensity (MFI). In addition, the tumors and main organs (bladder, liver, heart, lungs, stomach, spleen, skin, kidneys, colon, muscles, bones, and blood) were dissected and imaged for biodistribution analysis.

[3] = target: recombinant IGF2BP2 protein (approximately 29 kDa) (human); experiment: ELISA; phage ELISA; purified IGF2BP2 protein coated on a 96-well plate, phage clones after the third round of screening, OD at 450 nm
[4] = KYSE-30 xenograft mice, 50 μg Cy5-peptide via tail vein, ROI quantification, n = 3
[5] = ex vivo optical imaging of tumors and main organs 2 h postinjection, 50 μg i.v., n = 3

P12-Cy5: P12 peptide conjugated to arginine-penetrating peptide (RRRRRRRR) at the C-terminus and Cy5 fluorescent group at the N-terminus (Cy5-LSMPWSPTTYASRRRRRRRR; also: linker between P12 and R8 not defined)
Binding / fluorescence in confocal immunocytochemistry (KYSE-30 cells [1]): strong binding in the cytoplasm | Peak shift in flow cytometric analysis (KYSE-30 cells [2]): peak shift | Binding to IGF2BP2-positive tumors (immunofluorescence of frozen tumor sections after imaging) (KYSE-30 xenografts; KYSE-30 tumor tissue resected after imaging): strong binding | TBRs over time (KYSE-30 xenografts; [4]): gradually increasing over time | Time at which mean fluorescence intensity (MFI) peaked (KYSE-30 xenografts; [4]): 2 h | Tumor accumulation in NIRF imaging in comparison to C12-Cy5 (KYSE-30 xenografts; KYSE-30 xenograft mice, 50 μg Cy5-peptide via tail vein, different time points postinjection, n = 3): significantly higher tumor accumulation | Uptake in kidney relative to other organs (KYSE-30 xenografts; biodistribution, KYSE-30 xenograft mice): relatively higher in the kidney than in other organs, including the tumors | Clearance route from biodistribution (KYSE-30 xenografts; [5]): prominent renal clearance | Enrichment in KYSE-30 tumors relative to organs (biodistribution) (KYSE-30 xenografts; [5]): high in all organs except the urinary organs

LSMPWSPTTYAS [P12 peptide (…) displayed on phage]
OD value (450 nm) relative to the control (times that of the control) [3]: 10
